# In patent US20240018118A1, “TRICYCLIC COMPOUNDS TO DEGRADE NEOSUBSTRATES FOR MEDICAL THERAPY” (C 4 Therapeutics, Inc., priority 2020, published 2024):
# Where two headings read alike, the source gives them in different places.
# Tests used:
# IKZF4 = IKZF4 (Homo sapiens, UniProt Q96SW2+Q9H2S9); details: cited from earlier work
# IKZF2 = IKZF2 (Homo sapiens, UniProt Q96SW2+Q9UKS7); details: cited from earlier work
# SALL4 = SALL4 (Homo sapiens, UniProt Q96SW2+Q9UJQ4); assay: HiBiT degradation assay, KELLY.2 (SALL4-HiBiT) cells; assay type: cell-based; details: for DC50: KELLY.2 cells, 6 hours; for Emax: read-out: HiBiT-Degradation KELLY.2 SALL4 6 hours Emax, KELLY.2 cells
# Description: RPMI 1640 Medium without phenol red, fetal bovine serum (FBS), and Sodium Pyruvate (100 mM) were purchased from Gibco (Grand Island, NY, USA). Nano-Glo® HiBiT Lytic Assay System was purchased from Promega (Madison, WI, USA). […] Cell culture flasks and 384-well microplates were acquired from VWR (Radnor, PA, USA).
# (§1) SALL4 degradation was determined based on quantification of luminescent signal using Nano-Glo® HiBiT Lytic Assay kit. Test compounds were added to the 384-well plate from a top concentration of 10 μM with 11 points, half log titration in duplicates. KELLY.2 cells were added into 384-well plates at a cell density of 6000 cells per well. The plates were kept at 37° C. with 5% CO2 for 6 hours. The cells treated in the absence of the test compound were the negative control and the cells without Nano-Glo® HiBiT Lytic reagent were the positive control. After 6-hour incubation, Nano-Glo® HiBiT Lytic Assay reagents were added to the cells. Luminescence was acquired on EnVision™ Multilabel Reader (PerkinElmer, Santa Clara, CA, USA).
# GSPT1 = GSPT1 (Homo sapiens, UniProt P15170+Q96SW2); assay: HiBiT degradation assay, 293T.114 cells, GSPT1; assay type: cell-based; details: 293T.114 cells
# Description: as §1, with “GSPT1” for “SALL4”, “5” for “11”, “3-fold” for “half log”, “quadruplicates. 293T.114” for “duplicates. KELLY.2”, “The plates were kept at 37° C. with 5% CO2 for 6 hours.” left out, “After 6-hour incubation, Nano-Glo® HiBiT Lytic Assay reagents were added to the cells.” left out
# IKZF1 = molecular target: T1, IKZF1 (Homo sapiens, UniProt Q13422+Q96SW2); assay: HiBiT degradation assay, NCIH929.11 (HiBiT-IKZF1) cells; assay type: cell-based; details: for DC50: NCHI929.11 cells, 6 hours; for Emax: read-out: HiBiT-Degradation NCHI929.11 IKZF1 6 hours Emax, NCHI929.11 cells
# T1 construct: endogenously expressing IKZF1 with HiBiT fusion tag via CRISPR; endogenous in cells; host or cells: NCIH929.11 (CRISPR knock-in)
# Description: RPMI no-phenol red medium and fetal bovine serum (FBS) were purchased from Gibco (Grand Island, NY, USA). Nano-Glo® HiBiT Lytic Assay System was purchased from Promega (Madison, WI, USA). NCIH929.11 (HiBiT-IKZF1) cell line was generated in house, endogenously expressing IKZF1 with HiBiT fusion tag via CRISPR. Cell culture flasks and 384-well microplates were acquired from VWR (Radnor, PA, USA).
# IKZF 1 degradation was determined based on quantification of luminescent signal using Nano-Glo® HiBiT Lytic Assay kit. Test compounds were added to the 384-well plate from a top concentration of 10 μM with 11 points, half-log titration in duplicates. NCIH929.11 cells expressing HiBiT-tagged TKZF1 were added into 384-well plates in RPMI medium containing 10% FBS and 0.05 mM 2-mercaptoethanol at a cell density of 15000 cells per well. The plates were kept at 37° C. with […] for 6 hours. Cells treated in the absence of the test compound were the negative control and wells containing media only were the positive control. After 6-hour incubation, Nano-Glo® HiBiT Lytic Assay reagents were added to the designated wells. Luminescence was acquired on EnVision™ Multilabel Reader (PerkinElmer, Santa Clara, CA, USA).
# CRBN = molecular target: T2, CRBN (Homo sapiens, UniProt Q96SW2); assay: NanoBRET CRBN binding, 293T.116 cells; details: 2 hours
# T2 construct: expressed in transfected cells; host or cells: 293T (line named 293T.116)
# [1] = molecular target: T3, CRBN-NanoLuc® fusion protein in 293T cells (Homo sapiens, UniProt Q96SW2); assay: NanoBRET assay: competitive displacement of pomalidomide-NanoBRET tracer from CRBN-NanoLuc in 293T.116 cells; assay type: binding; details: 2 h at 37° C., tracer at 300 nM
# T3 construct: expressed in transfected cells; host or cells: 293T (line named 293T.116)
# Description: The cell permeability and binding affinity of test compounds to cellular cereblon (CRBN) was determined by competitive displacement of a pomalidomide-NanoBRET™ tracer reversibly bound to a CRBN-NanoLuc® fusion protein in 293T cells. 293T cells were modified by lentiviral transfection to express a fusion of CRBN and NanoLuc® luciferase. […] Affinity of test compound was determined by displacement of NanoBRET-pomalidomide tracer signal following the addition of NanoBRET reagents (Promega) per manufacturer's instructions.
# 40 μL 293T.116 cells suspended in OptiMEM media at 2×10^5 cells/mL (8000 cells/well) were dispensed using a Multidrop Combi Reagent Dispenser (Thermo Fisher) to each well of 384-well white TC-treated microplates. 10 mM DMSO test compound stock solution was serially diluted (half log) in DMSO to generate 11-point dose series (10000, 3160, 1000, 316, 100, 31.6, 10, 3.2, 1, 0.3, 0.1 μM) in an acoustic ready 384-well low dead volume microplate (Labcyte). […] 20 μL NanoBRET TE Assay reagents were added to each well and NanoBRET signal was acquired on an EnVision Multilabel Reader (PerkinElmer). Donor emission from CRBN-NanoLuc was detected at 450 nm with a NanoLuc 460/50 filter and Acceptor fluorescence of NanoBRET-pomalidomide tracer (618 nm) was detected with a 600 nm long pass NanoBRET filter. Ratio of Acceptor signal/Donor signal was calculated for each well. […]
# [2] = 24 hours, read-out: HiBiT-Degradation 293T.114 GSPT1 24 hours DC50
# [3] = 24 hours, read-out: HiBiT-Degradation 293T.114 GSPT1 24 hours Emax
# [4] = 48 hours, read-out: HiBiT-Degradation 293T.114 GSPT1 48 hours DC50
# [5] = 48 hours, read-out: HiBiT-Degradation 293T.114 GSPT1 48 hours Emax
# [6] = 6 hours, read-out: HiBiT-Degradation 293T.114 GSPT1 6 hours DC50
# [7] = read-out: HiBiT-Degradation 293T.114 GSPT1 6 hours Emax, 6 hours
SMILES,degradation of IKZF4 (IKZF4),degradation of IKZF2 (IKZF2),DC50 (SALL4) [nM],Emax (SALL4) [%],DC50 (GSPT1; [2]) [nM],Emax (GSPT1; [3]) [%],DC50 (GSPT1; [4]) [nM],Emax (GSPT1; [5]) [%],DC50 (IKZF1) [nM],Emax (IKZF1) [%],IC50 (CRBN) [nM],DC50 (GSPT1; [6]) [nM],Emax (GSPT1; [7]) [%],IC50 [1] [nM]
Cc1nc2cccc(N)c2c(=O)n1C1CCC(=O)NC1=O (stereo not shown) [CC-122],not degraded,not degraded,–,–,–,–,–,–,–,–,–,–,–,–
O=C1CC[C@H](N2Cc3c(OCc4ccc(CN5CCOCC5)cc4)cccc3C2=O)C(=O)N1 [CC-220],efficiently degraded,efficiently degraded,–,–,–,–,–,–,–,–,–,–,–,–
"N#Cc1ccc(Cc2ccc3c4c(cccc24)N(C2CCC(=O)NC2=O)C3=O)cc1 (stereo not shown) [Compound 66, 4-[[1-(2,6-dioxo-3-piperidyl)-2-oxo-benzo[cd]indol-5-yl]methyl]benzonitrile]",–,–,100 to 1000,45 to 60,> 10000,60 to 95,> 10000,60 to 95,> 10000,60 to 95,< 100,–,–,–
"CCOc1ccc(Cc2ccc3c4c(cccc24)N(C2CCC(=O)NC2=O)C3=O)cc1 (stereo not shown) [Compound 68, 3-[5-[(4-ethoxyphenyl)methyl]-2-oxo-benzo[cd]indol-1-yl]piperidine-2,6-dione]",–,–,> 10000,60 to 95,–,–,–,–,> 10000,60 to 95,< 100,> 10000,60 to 95,–
"CCOC(=O)c1cc(Cc2ccc3c4c(cccc24)N(C2CCC(=O)NC2=O)C3=O)ccc1F (stereo not shown) [Compound 69, ethyl 5-[[1-(2,6-dioxo-3-piperidyl)-2-oxo-benzo[cd]indol-5-yl]methyl]-2-fluoro-benzoate]",–,–,> 10000,60 to 95,–,–,–,–,> 10000,60 to 95,< 100,> 10000,60 to 95,–
"N#Cc1ccc(N2CCN(Cc3ccc(Cc4ccc5c6c(cccc46)C(=O)N5[C@H]4CCC(=O)NC4=O)cc3)CC2)c(F)c1 [Compound 78, (S)-4-(4-(4-((1-(2,6-dioxopiperidin-3-yl)-2-oxo-1,2-dihydrobenzo[cd]indol-6-yl)methyl)benzyl)piperazin-1-yl)-3-fluorobenzonitrile]",–,–,< 100,< 45,–,–,–,–,< 100,< 45,< 100,> 10000,60 to 95,–
"O=C1CCC(N2C(=O)c3ccc(CNCc4cc(F)ccc4F)c4cccc2c34)C(=O)N1 (stereo not shown) [Compound 155, 3-[5-[[(2,5-difluorophenyl)methylamino]methyl]-2-oxo-benzo[cd]indol-1-yl]piperidine-2,6-dione]",–,–,< 100,< 45,> 10000,60 to 95,> 10000,60 to 95,> 10000,45 to 60,< 100,–,–,–
O=C1CCC(N2C(=O)c3ccc(CNCCc4ccc(Cl)cc4)c4cccc2c34)C(=O)N1 (stereo not shown) [Compound 157],–,–,< 100,< 45,> 10000,60 to 95,> 10000,60 to 95,100 to 1000,< 45,< 100,–,–,–
O=C1CCC(N2C(=O)c3ccc(CN4CC(Oc5ccccc5)C4)c4cccc2c34)C(=O)N1 (stereo not shown) [Compound 158],–,–,< 100,< 45,< 100,< 45,–,–,< 100,< 45,< 100,< 100,< 45,–
CC(C)OC1CCN(Cc2cc3c4c(cccc4c2)N(C2CCC(=O)NC2=O)C3=O)CC1 (stereo not shown) [Compound 161],–,–,> 10000,60 to 95,> 10000,60 to 95,> 10000,60 to 95,1000 to 10000,< 45,< 100,–,–,–
"CC1(C(=O)N2CCC(n3cc(Cc4ccc5c6c(cccc46)C(=O)N5[C@H]4CCC(=O)NC4=O)cn3)CC2)CCC1 [Compound 206, (3S)-3-[6-[[1-[1-(1-methylcyclobutanecarbonyl)-4-piperidyl]pyrazol-4-yl]methyl]-2-oxo-benzo[cd]indol-1-yl]piperidine-2,6-dione]",–,–,< 100,< 45,–,–,–,–,< 100,< 45,< 100,> 10000,> 95,–
O=C1CCC(N2C(=O)c3ccc(Br)c4cccc2c34)C(=O)N1 (stereo not shown) [Compound 224],–,–,< 100,< 45,–,–,–,–,> 10000,60 to 95,< 100,> 10000,60 to 95,40
N#Cc1ccc2c3c(cccc13)N(C1CCC(=O)NC1=O)C2=O (stereo not shown) [Compound 225],–,–,–,–,–,–,–,–,–,–,–,–,–,60
Nc1cccc2c1C(=O)N(C1CCC(=O)NC1=O)C2=O (stereo not shown) [pomalidomide],not degraded,not degraded,–,–,–,–,–,–,–,–,–,–,–,–
